Measurements: ChEMBL document CHEMBL5321272 (J Med Chem, 2023)
Activity calls are given as the source filed them. The rule behind the calls is not given here.

What was measured:
[1] = Selectivity ratio of IC50 for JAK3 (unknown origin) to IC50 for FLT3-ITD mutant (unknown origin)
[2] = Acute toxicity in ICR mouse assessed as animal's death at 300 mg/kg, ig and measured for 7 days; format: organism-based; details: in vivo, po, 168 h, time 7 day
[3] = Selectivity ratio of IC50 for EPHA1 (unknown origin) to IC50 for FLT3-ITD mutant (unknown origin)
[4] = Selectivity ratio of IC50 for IRAK4 (unknown origin) to IC50 for FLT3-ITD mutant (unknown origin)
[5] = target: Receptor-type tyrosine-protein kinase FLT3 (Homo sapiens, UniProt P36888, D835Y)
Description: Inhibition of FLT3 D835Y mutant (unknown origin) using peptide substrate TK-S and ATP as substrate incubated for 1 hr by HTRF assay

[6] = target: T1, Voltage-gated inwardly rectifying potassium channel KCNH2 (Homo sapiens, UniProt Q12809); assay: Inhibition of hERG expressed in HEK293 cells assessed as inhibition of tail current at 1 to 10 uM by whole cell patch clamp analysis; format: toxicity, cell-based; details: hek293, 10 µM, dose 1-10 µM
[7] = target: Mitogen-activated protein kinase kinase kinase 7 (Homo sapiens, UniProt O43318); assay: Inhibition of TAK1 (unknown origin) by HTRF assay
[8] = Acute toxicity in ICR mouse assessed as body weight loss at 300 mg/kg, ig and measured for 7 days; format: organism-based; details: in vivo, po, 168 h, time 7 day
[9] = target: Receptor-type tyrosine-protein kinase FLT3 (Homo sapiens) (UniProt P36888); assay: Inhibition of FLT3 in human MV4-11 cells assessed as inhibition of FLT3 phosphorylation at 20 nM measured after 90 mins by western blot analysis; format: cell-based
[10] = Selectivity ratio of IC50 for EGFR (unknown origin) to IC50 for FLT3-ITD mutant (unknown origin)
[11] = tested on: MV4-11; assay: Antitumor activity against human MV4-11 cells xenografted in nu/nu mouse assessed as inhibition of tumor growth administered orally qd for 22 days; format: functional; details: dose 1-3 mg/kg, route po, time 22.0 day
[12] = tested on: MOLM-13; assay: Antitumor activity against human MOLM-13 cells xenografted in NSG mouse assessed as prolongation of animal's survival at 15 mg/kg, po qd for 26 days; format: functional, organism-based; details: time 26.0 day
[13] = target: T2, Serine/threonine-protein kinase Chk1 (Homo sapiens) (UniProt O14757); assay: Inhibition of CHK1 in human MV4-11 cells assessed as downregulation of c-Myc protein expression at 50 to 200 nM measured after 90 mins by western blot analysis; format: cell-based; details: dose 50-200 nM
T2 sequence (whole entry): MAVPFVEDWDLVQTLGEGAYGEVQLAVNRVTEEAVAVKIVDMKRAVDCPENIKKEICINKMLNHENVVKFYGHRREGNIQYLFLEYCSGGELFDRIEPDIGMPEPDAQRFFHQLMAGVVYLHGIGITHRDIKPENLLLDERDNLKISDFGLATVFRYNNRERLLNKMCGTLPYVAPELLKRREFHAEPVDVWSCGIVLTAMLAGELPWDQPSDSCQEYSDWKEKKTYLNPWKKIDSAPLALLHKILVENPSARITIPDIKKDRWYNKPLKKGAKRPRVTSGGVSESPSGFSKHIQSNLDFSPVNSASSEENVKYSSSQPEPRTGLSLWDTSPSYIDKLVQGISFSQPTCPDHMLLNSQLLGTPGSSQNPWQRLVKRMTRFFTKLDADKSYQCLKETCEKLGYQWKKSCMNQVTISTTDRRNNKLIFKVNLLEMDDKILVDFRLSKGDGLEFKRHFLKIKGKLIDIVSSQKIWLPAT

[14] = Selectivity ratio of IC50 for CK1alpha (unknown origin) to IC50 for FLT3-ITD mutant (unknown origin)
[15] = Selectivity ratio of IC50 for inhibition of c-KIT (unknown origin) to IC50 for inhibition of FLT3 D835Y mutant (unknown origin)
[16] = target: Receptor-type tyrosine-protein kinase FLT3 (Homo sapiens) (UniProt P36888); assay: Inhibition of FLT3 in human MV4-11 cells assessed as inhibition of ERK phosphorylation at Tyr204 residue measured after 90 mins by western blot analysis; format: cell-based; details: dose 20-100 nM
[17] = AUC (last) in ICR mouse at 10 mg/kg, po; format: ADME, organism-based; set-up: dose 10 mg/kg, route po; details: in vivo
[18] = Selectivity ratio of IC50 for ASK1 (unknown origin) to IC50 for FLT3-ITD mutant (unknown origin)
[19] = target: Receptor-type tyrosine-protein kinase FLT3 (Homo sapiens) (UniProt P36888); assay: Inhibition of FLT3 in human MV4-11 cells assessed as inhibition of AKT phosphorylation at Ser473 residue measured after 90 mins by western blot analysis; format: cell-based; details: dose 20-100 nM
[20] = Selectivity ratio of IC50 for TEC (unknown origin) to IC50 for FLT3-ITD mutant (unknown origin)
[21] = tested on: MV4-11; assay: Antitumor activity against human MV4-11 cells xenografted in nu/nu mouse assessed as inhibition of tumor growth rate at 3 mg/kg, po qd for 22 days; format: functional; details: MV4-11, 528 h, time 22 day
[22] = tested on: MOLM-13; assay: Antitumor activity against human MOLM-13 cells xenografted in NSG mouse assessed as animal's survival rate at 30 mg/kg, po qd for 26 days (reference value: 17 days); format: functional; details: time 26 day
[23] = Toxicity against NSG mouse xenografted with human MOLM-13 cells assessed as body weight loss at 15 to 30 mg/kg, po qd for 26 days; format: organism-based; details: in vivo, 624 h, dose 15-30 mg/kg, time 26 day
[24] = Cmax in ICR mouse at 10 mg/kg, po; format: ADME, organism-based; set-up: dose 10 mg/kg, route po; details: in vivo
[25] = Acute toxicity in ICR mouse assessed as morphological changes in spleen at 300 mg/kg, ig and measured for 7 days by Hematoxylin-Eosin staining based analysis; format: organism-based; details: in vivo, po, 168 h, time 7 day
[26] = target: Hepatocyte growth factor receptor (Homo sapiens, UniProt P08581); assay: Inhibition of MET (unknown origin) by HTRF assay
[27] = tested on: MV4-11; assay: cells; details: Homo sapiens, MV4-11, 72 h
Description: Antiproliferative activity against human MV4-11 cells assessed as reduction in cell viability incubated for 72 hrs by CellTiter 96 Aqueous One Solution Cell Proliferation Assay

[28] = AUC (infinity) in ICR mouse at 10 mg/kg, po; format: ADME, organism-based; set-up: dose 10 mg/kg, route po; details: in vivo
[29] = target: T1, Voltage-gated inwardly rectifying potassium channel KCNH2; assay: Inhibition of hERG expressed in HEK293 cells assessed as fast channel deactivation at 100 uM by whole cell patch clamp analysis; format: toxicity, cell-based; details: hek293, 100 µM
[30] = Acute toxicity in ICR mouse assessed as morphological changes in liver at 300 mg/kg, ig and measured for 7 days by Hematoxylin-Eosin staining based analysis; format: organism-based; details: in vivo, po, 168 h, time 7 day
[31] = Selectivity ratio of IC50 for PAK1 (unknown origin) to IC50 for FLT3-ITD mutant (unknown origin)
[32] = tested on: BaF3; assay: Antiproliferative activity against mouse BaF3 cells harboring FLT3 D835V mutant assessed as reduction in cell viability incubated for 72 hrs by CellTiter 96 Aqueous One Solution Cell Proliferation Assay; format: functional, cell-based
[33] = target: Receptor-type tyrosine-protein kinase FLT3 (Homo sapiens, UniProt P36888, ITD); assay: Inhibition of FLT3 ITD mutant (unknown origin) by HTRF assay
[34] = target: T2, Serine/threonine-protein kinase Chk1 (Homo sapiens); assay: Inhibition of CHK1 in human MV4-11 cells assessed as upregulation of p21 protein expression measured after 90 mins by western blot analysis; format: cell-based; details: dose 50-200 nM

T1 sequence (Q12809 whole entry): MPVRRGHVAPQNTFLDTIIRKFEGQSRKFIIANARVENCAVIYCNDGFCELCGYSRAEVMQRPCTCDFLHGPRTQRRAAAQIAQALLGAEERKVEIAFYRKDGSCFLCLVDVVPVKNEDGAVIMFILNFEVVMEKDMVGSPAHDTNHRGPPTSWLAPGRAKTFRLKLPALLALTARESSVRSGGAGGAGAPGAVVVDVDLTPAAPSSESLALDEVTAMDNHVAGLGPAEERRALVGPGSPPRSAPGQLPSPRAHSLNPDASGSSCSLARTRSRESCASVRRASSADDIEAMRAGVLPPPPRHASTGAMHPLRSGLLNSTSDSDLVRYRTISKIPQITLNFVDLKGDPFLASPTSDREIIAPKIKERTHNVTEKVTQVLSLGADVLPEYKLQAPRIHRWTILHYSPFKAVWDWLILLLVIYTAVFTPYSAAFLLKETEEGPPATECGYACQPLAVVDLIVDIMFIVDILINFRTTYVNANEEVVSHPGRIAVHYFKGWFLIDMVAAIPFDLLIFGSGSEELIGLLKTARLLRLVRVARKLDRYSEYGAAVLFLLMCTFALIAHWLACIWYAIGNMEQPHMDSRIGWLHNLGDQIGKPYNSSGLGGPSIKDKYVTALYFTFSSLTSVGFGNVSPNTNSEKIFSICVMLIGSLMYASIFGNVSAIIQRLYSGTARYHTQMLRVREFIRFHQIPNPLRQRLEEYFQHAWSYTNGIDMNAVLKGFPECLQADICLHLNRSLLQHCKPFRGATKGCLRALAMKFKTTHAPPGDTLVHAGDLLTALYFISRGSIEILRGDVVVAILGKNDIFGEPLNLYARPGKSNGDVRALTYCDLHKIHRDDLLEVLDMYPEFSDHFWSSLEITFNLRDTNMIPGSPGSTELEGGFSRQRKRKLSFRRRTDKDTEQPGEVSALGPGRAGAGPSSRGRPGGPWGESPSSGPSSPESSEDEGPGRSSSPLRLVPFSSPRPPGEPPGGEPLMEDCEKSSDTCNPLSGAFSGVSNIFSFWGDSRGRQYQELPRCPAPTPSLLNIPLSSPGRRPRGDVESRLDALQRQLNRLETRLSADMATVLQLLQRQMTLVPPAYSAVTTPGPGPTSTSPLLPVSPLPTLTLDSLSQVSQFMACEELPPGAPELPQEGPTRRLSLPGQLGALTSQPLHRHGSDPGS
Mitogen-activated protein kinase kinase kinase 7, sequence (O43318 whole entry): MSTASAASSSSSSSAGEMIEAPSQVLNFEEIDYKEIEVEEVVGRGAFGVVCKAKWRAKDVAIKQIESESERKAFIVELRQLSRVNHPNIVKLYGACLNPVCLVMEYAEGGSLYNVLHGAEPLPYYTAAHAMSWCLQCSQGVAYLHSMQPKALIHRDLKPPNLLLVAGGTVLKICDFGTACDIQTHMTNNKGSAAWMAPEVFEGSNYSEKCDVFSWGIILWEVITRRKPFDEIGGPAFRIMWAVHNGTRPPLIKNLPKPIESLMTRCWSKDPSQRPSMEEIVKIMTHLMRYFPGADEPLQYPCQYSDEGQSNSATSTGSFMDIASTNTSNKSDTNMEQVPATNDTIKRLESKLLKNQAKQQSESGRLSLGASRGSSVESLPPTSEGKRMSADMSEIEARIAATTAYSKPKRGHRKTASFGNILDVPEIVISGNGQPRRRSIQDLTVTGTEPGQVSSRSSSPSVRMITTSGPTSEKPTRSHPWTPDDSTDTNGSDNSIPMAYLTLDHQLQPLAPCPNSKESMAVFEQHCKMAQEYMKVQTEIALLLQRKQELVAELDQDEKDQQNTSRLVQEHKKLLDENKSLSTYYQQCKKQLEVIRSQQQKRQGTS
Hepatocyte growth factor receptor, sequence (P08581 whole entry): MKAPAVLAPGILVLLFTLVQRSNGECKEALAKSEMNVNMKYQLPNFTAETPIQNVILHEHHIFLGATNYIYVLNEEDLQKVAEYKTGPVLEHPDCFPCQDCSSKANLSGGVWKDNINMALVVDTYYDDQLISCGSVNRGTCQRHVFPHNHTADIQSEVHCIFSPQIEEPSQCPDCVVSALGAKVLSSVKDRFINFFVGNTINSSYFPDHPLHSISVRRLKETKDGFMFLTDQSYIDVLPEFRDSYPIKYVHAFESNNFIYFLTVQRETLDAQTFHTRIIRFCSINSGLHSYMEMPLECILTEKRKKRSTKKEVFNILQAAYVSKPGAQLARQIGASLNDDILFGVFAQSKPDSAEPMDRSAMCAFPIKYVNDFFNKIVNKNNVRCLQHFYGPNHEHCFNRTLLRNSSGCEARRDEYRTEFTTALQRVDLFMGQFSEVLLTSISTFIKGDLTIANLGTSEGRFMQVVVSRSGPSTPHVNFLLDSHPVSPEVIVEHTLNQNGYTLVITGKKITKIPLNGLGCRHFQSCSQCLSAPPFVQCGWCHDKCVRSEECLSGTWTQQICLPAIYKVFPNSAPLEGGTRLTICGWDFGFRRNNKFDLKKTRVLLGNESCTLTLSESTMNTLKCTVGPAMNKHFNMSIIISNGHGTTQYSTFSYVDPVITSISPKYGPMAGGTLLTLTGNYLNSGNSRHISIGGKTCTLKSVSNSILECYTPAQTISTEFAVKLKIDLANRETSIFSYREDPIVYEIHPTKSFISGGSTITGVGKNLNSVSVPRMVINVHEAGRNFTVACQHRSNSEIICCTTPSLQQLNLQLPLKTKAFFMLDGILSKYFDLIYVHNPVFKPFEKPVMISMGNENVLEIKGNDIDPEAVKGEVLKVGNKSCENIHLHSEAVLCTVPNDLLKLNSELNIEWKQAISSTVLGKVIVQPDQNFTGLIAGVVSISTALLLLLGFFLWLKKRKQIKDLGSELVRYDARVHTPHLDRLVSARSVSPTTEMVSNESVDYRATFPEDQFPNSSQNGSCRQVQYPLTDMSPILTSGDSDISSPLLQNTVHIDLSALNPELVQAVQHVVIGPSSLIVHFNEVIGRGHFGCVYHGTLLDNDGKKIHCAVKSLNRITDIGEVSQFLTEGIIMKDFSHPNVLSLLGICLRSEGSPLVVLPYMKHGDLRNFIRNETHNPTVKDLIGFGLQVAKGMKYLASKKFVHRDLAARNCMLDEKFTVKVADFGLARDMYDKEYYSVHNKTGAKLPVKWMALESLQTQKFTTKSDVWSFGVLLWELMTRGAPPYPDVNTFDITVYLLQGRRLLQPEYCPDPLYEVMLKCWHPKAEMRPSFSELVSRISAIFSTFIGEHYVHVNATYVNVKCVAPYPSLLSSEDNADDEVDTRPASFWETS

Which results are given for `CC(C)(O)CC(=O)N1CCc2cc(Nc3ncc(C(F)(F)F)c(N[C@H]4CC[C@@H](N)CC4)n3)ccc2C1`?
Ratio IC50 [1]: > 100; Activity [2]: Non-Toxic; Ratio IC50 [3]: > 100; Ratio IC50 [4]: > 100; IC50 [5]: 1.08 nM; inhibition (INH) [6]: Not Active; IC50 [7]: 64.3 nM; Activity [8]: Non-Toxic; inhibition [9]: 100%; Ratio IC50 [10]: > 100; Activity [11]: Dose-Dependent Effect; Activity [12]: inactive; inhibition [13]: Active; Ratio IC50 [14]: > 100; Ratio IC50 [15]: 1740; inhibition [16]: Dose-Dependent Effect; AUC(0-t) [17]: 1570 ng·h/mL; Ratio IC50 [18]: > 100; inhibition [19]: Dose-Dependent Effect; Ratio IC50 [20]: > 100; inhibition in vivo at 3 mg/kg [21]: 52.8%; Survival [22]: 22 days; Activity [23]: Non-Toxic; Cmax [24]: 571 ng/mL; Activity [25]: Non-Toxic; IC50 [26]: > 10000 nM; IC50 [27]: 0.21 nM; AUC(0-inf) [28]: 1660 ng·h/mL; inhibition (INH) [29]: Active; Activity [30]: Non-Toxic; Ratio IC50 [31]: > 100; Activity [32]: Active; IC50 [33]: < 10 nM; inhibition [34]: Dose-Dependent Effect
